# Entries after “also recorded” stand apart in the source; their conditions may differ.
# Tests used:
# [1] = tested on: Commelina benghalensis stomatal opening induced by light; test: Measurement of stomatal opening; type: in vivo; details: 50 µM; light 3 h (Supplementary Fig. 1)
# Method: The experiments were performed as described previously[30],[68]. Briefly, Stomidazolone or ABA were added to a multi-well plate with basal buffer [5 mM MES/bistrispropane (pH 6.5), 50 mM KCl, and 0.1 mM CaCl2] to be diluted to a final concentration of 50 or 20 µM, respectively. C. benghalensis plants were incubated in the dark overnight; then, 4 mm diameter leaf discs were excised from fully expanded leaves using a hole punch (Biopsy Punch, Kai Medical). Samples were immersed in a basal buffer containing compounds for 30 min before being exposed to light (150 µmol m^−2 s^−1 red light and 50 µmol m^−2 s^−1 blue light) for 3 h. The stomatal apertures were observed using a stereoscopic microscope (BX43; Olympus). The microscopic images were acquired with a charge-coupled device (CCD) camera (DP27; Olympus), followed by autofocus image processing using cellSens standard software (Olympus). Measurement of stomatal apertures of C. benghalensis was performed by using an automation program, DeepStomata[69].
# [2] = target: T1, SCRM (Arabidopsis thaliana, UniProt Q9LSE2); test: ITC direct binding; design: species or system A. thaliana
# T1 construct: SCRM (1-494); made in house; host or cells: E. coli BL21
# T1 sequence (Q9LSE2 1-494): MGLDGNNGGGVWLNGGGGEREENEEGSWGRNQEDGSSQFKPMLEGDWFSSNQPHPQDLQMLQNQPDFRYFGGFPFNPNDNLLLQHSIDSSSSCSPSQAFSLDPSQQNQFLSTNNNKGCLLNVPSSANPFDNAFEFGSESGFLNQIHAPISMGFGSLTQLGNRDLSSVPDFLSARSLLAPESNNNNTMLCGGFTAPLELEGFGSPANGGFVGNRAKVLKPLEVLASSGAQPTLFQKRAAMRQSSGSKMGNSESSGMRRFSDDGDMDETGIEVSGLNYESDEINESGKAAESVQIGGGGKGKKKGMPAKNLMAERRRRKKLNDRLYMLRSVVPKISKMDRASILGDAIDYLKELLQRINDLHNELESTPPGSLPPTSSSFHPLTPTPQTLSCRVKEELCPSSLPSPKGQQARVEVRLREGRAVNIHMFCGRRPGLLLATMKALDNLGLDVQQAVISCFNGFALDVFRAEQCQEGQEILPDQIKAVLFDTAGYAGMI
compound,measurement,setting,value
O=C1C(c2ccccc2)=NC(NS(=O)(=O)c2ccccc2)(c2ccccc2)N1S(=O)(=O)c1ccccc1 (centres unmarked) [Stomidazolone],effect on stomatal movement (in words),[1],did not exhibit any discernable effects; also recorded: does not affect
same,-T△S,[2],4.1 ± 0.2
same,Kd,[2],71.5 ± 5.1 µM
same,△G,[2],-4.8 ± 0.2
same,△H,[2],-8.9 ± 0.2
